From patent US11566007B2, “Ras inhibitors” (Revolution Medicines, Inc., priority 2019, dated 2023)
Read-outs that look alike come from different tables or passages of the source.

Tests used:
[1] = system: NCI-H358 cells (K-Ras G12C); assay: Potency assay: pERK in NCI-H358 cells; assay type: cell-based, human; details: Homo sapiens, NCI-H358; H358 KRAS G12C; read-out: pERK EC50
Procedure, shortened: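 pERK decrease read by AlphaLISA SureFire p-ERK1/2 or In-Cell Western after 4 h compound exposure at 37 °C, 5% CO2.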

K-Ras G12C = K-Ras G12C (Homo sapiens (Human), UniProt P01116+P62937, G12C); assay: Ras-Raf (BRAF RBD) disruption / FRET / MOA assay, KRAS G12C; assay type: biochemical; details: KRAS G12C; Ras-Raf disruption/FRET/MOA assay; read-out: IC50* KRAS G12C FRET data
Procedure, shortened: (§1)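 TR-FRET read-out: a drop in ratio relative to DMSO wells marks disruption of the Ras:RAF complex, reported as IC50. Compounds (3-fold series, 10 points, top 30 μM final) incubated 3 h at 25° C before Eu-anti-His 10 nM and APC-anti-GST 50 nM, 1.5 h more.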

KRAS G12V = KRAS G12V (Homo sapiens (Human), UniProt P01116+P62937, G12V); assay: Ras-Raf (BRAF RBD) disruption / FRET / MOA assay, KRAS G12V; assay type: biochemical; details: read-out: IC50* KRAS G12V FRET data
Procedure, shortened: as §1

NRAS G12C = NRAS G12C (Homo sapiens (Human), UniProt P01111+P62937, G12C); assay: Ras-Raf (BRAF RBD) disruption / FRET / MOA assay, NRAS G12C; assay type: biochemical
Procedure, shortened: as §1

NRAS Q61R = NRAS Q61R (Homo sapiens (Human), UniProt P01111+P62937, Q61R); assay: Ras-Raf (BRAF RBD) disruption / FRET / MOA assay, NRAS Q61R; assay type: biochemical; details: NRAS Q61R; Ras-Raf disruption/FRET/MOA assay; read-out: IC50* NRAS Q61R FRET data
Procedure, shortened: (§2)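 Compounds were tested as a 10-point 3-fold dilution series from 30 μM final for their ability to drive ternary complex formation between nucleotide-loaded Ras and cyclophilin A, displacing the BRAF RBD. After 3 h at 25° C., anti-His Eu-W1024 (10 nM) and anti-GST allophycocyanin (50 nM) were added for 1.5 h. A TR-FRET ratio decrease versus DMSO gave IC50.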

NRAS WT = NRAS WT (Homo sapiens (Human), UniProt P01111+P62937); assay: Ras-Raf (BRAF RBD) disruption / FRET / MOA assay, NRAS WT; assay type: biochemical; details: read-out: IC50* NRAS WT FRET data
Procedure, shortened: as §2

[2] = read-out: IC50* NRAS G12C FRET data

Sequence of NRAS G12C (P01111 whole entry G12C): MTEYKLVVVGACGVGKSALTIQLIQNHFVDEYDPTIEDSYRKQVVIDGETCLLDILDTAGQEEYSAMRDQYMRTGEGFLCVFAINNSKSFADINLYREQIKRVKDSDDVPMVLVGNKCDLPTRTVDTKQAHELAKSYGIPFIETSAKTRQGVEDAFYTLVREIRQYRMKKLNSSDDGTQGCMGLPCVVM
Sequence of NRAS G12C (P62937 whole entry): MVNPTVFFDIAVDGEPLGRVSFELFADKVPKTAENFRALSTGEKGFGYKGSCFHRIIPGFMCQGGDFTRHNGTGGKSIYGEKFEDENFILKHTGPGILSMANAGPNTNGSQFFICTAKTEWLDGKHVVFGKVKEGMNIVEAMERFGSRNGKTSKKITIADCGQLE
Sequence of K-Ras G12C (P01116-2 other isoform, or with tags, fused parts or gaps G12C): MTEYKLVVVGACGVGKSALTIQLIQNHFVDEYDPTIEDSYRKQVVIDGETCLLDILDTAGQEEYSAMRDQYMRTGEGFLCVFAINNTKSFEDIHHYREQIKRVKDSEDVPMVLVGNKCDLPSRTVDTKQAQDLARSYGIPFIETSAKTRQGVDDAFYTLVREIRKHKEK
Sequence of K-Ras G12C (P62937 whole entry): as the sequence (P62937 whole entry) above
Sequence of KRAS G12V (P01116-2 other isoform, or with tags, fused parts or gaps G12V): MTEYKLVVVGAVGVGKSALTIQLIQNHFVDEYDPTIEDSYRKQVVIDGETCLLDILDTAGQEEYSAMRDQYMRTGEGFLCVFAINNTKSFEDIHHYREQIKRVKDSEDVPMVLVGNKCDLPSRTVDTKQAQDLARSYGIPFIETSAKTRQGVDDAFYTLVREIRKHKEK
Sequence of KRAS G12V (P62937 whole entry): as the sequence (P62937 whole entry) above
Sequence of NRAS WT (P01111 whole entry): as the sequence (P01111 whole entry G12C) above, with C12G counted along it
Sequence of NRAS WT (P62937 whole entry): as the sequence (P62937 whole entry) above
Sequence of NRAS Q61R (P01111 whole entry Q61R): as the sequence (P01111 whole entry G12C) above, with C12G, Q61R counted along it
Sequence of NRAS Q61R (P62937 whole entry): as the sequence (P62937 whole entry) above

SMILES	EC50 [1] [nM]	IC50 (K-Ras G12C) [nM]	IC50 (KRAS G12V) [nM]	IC50 (NRAS G12C; [2]) [nM]	IC50 (NRAS Q61R) [nM]	IC50 (NRAS WT) [nM]	IC50 (NRAS G12C; IC50* NRAS G12C FRET data) [nM]
CO[C@@H](C)c1ncccc1-c1c2c3cc(ccc3n1CC(F)(F)F)-c1nc(ns1)C[C@H](NC(=O)[C@@H](COC1CN(C(=O)C#CC(C)(C)N(C)C)C1)C(C)C)C(=O)N1CCC[C@H](N1)C(=O)OCC(C)(C)C2 (atropisomer, axis not shown) [Example A590, (2R)-2-(((1-(4-(dimethylamino)-4-methylpent-2-ynoyl)azetidin-3-yl)oxy)methyl)-N-((6^3S,4S,Z)-1^2-(2-((S)-1-methoxyethyl)pyridin-3-yl)-10,10-dimethyl-5,7-dioxo-1^1-(2,2,2-trifluoroethyl)-6^1,6^2,6^3,6^4,6^5,6^6-hexahydro-1^1H-8-oxa-2(5,3)-thiadiazola-1(5,3)-indola-6(1,3)-pyridazinacycloundecaphane-4-yl)-3-methylbutanamide]	< 5000	10 to 100	1000 to 10000	10 to 100	> 10000	1000 to 10000	–
C=CC(=O)N1CCO[C@@]2(CCN(C(=O)N(C)[C@H](C(=O)N[C@H]3Cc4nc(cs4)-c4ccc5c(c4)c(c(-c4cccnc4[C@H](C)OC)n5CC(F)(F)F)CC(C)(C)COC(=O)[C@@H]4CCCN(N4)C3=O)C(C)C)C2)C1 (atropisomer, axis not shown) [Example A594]	< 5000	10 to 100	100 to 1000	–	10 to 100	10 to 100	10 to 100
C=CC(=O)N1CCO[C@H]2CN(C(=O)N(C)[C@H](C(=O)N[C@H]3Cc4cccc(n4)-c4ccc5c(c4)c(c(-c4cccnc4[C@H](C)OC)n5CC(F)(F)F)CC(C)(C)COC(=O)[C@@H]4CCCN(N4)C3=O)C(C)C)C[C@H]21 (atropisomer, axis not shown) [Example A595]	< 5000	10 to 100	1000 to 10000	10 to 100	100 to 1000	100 to 1000	–
C=CC(=O)N1CCO[C@H]2CN(C(=O)N(C)[C@H](C(=O)N[C@H]3Cc4cccc(n4)-c4ccc5c(c4)c(c(-c4cccnc4[C@H](C)OC)n5CC)CC(C)(C)COC(=O)[C@@H]4CCCN(N4)C3=O)C(C)C)C[C@H]21 (atropisomer, axis not shown) [Example A597]	< 5000	10 to 100	1000 to 10000	10 to 100	100 to 1000	1000 to 10000	–
C=CC(=O)N1CCO[C@H]2CN(C(=O)N(C)[C@H](C(=O)N[C@H]3Cc4cccc(c4)-c4ccc5c(c4)c(c(-c4cccnc4[C@H](C)OC)n5CC)CC(C)(C)COC(=O)[C@@H]4CCCN(N4)C3=O)C(C)C)C[C@H]21 (atropisomer, axis not shown) [Example A610]	< 5000	10 to 100	1000 to 10000	10 to 100	100 to 1000	100 to 1000	–
C=CC(=O)N1CC2(CCN2C(=O)N(C)[C@H](C(=O)N[C@H]2Cc3nc(n(C)n3)-c3ccc4c(c3)c(c(-c3cccnc3[C@H](C)OC)n4CC)CC(C)(C)COC(=O)[C@@H]3CCCN(N3)C2=O)C(C)C)C1 (atropisomer, axis not shown) [Example A612]	< 5000	10 to 100	100 to 1000	< 10	10 to 100	10 to 100	–
CCn1c(-c2cccnc2[C@H](C)OC)c2c3cc(ccc31)N1CCC[C@@H](C[C@H](NC(=O)[C@H](C(C)C)N(C)C(=O)C3(F)CCN(C(=O)C#CC(C)(C)N(C)C)CC3)C(=O)N3CCC[C@H](N3)C(=O)OCC(C)(C)C2)C1 (atropisomer, axis not shown) [Example A615]	< 5000	10 to 100	> 10000	10 to 100	> 10000	> 10000	–
C=CC(=O)N(C)CCC1CCN(C(=O)N(C)[C@H](C(=O)N[C@H]2Cc3nc(cs3)-c3ccc4c(c3)c(c(-c3cccnc3[C@H](C)OC)n4CC)CC(C)(C)COC(=O)[C@@H]3CCCN(N3)C2=O)C(C)C)CC1 (atropisomer, axis not shown) [Example A621]	< 5000	10 to 100	10 to 100	10 to 100	10 to 100	10 to 100	–
CCn1c(-c2cccnc2[C@H](C)OC)c2c3cc(ccc31)-c1csc(n1)C[C@H](NC(=O)[C@H](C(C)C)N(C)C(=O)N1C[C@H]3CN(C(=O)C#CC(C)(C)N(C)C)CC[C@H]31)C(=O)N1CCC[C@H](N1)C(=O)OCC(C)(C)C2 (atropisomer, axis not shown) [Example A624]	< 5000	10 to 100	100 to 1000	10 to 100	100 to 1000	100 to 1000	–
CCn1c(-c2cccnc2[C@H](C)OC)c2c3cc(ccc31)-c1csc(n1)C[C@H](NC(=O)[C@H](F)COC1CN(C(=O)C#CC(C)(C)N(C)C)C1)C(=O)N1CCC[C@H](N1)C(=O)OCC(C)(C)C2 (atropisomer, axis not shown) [Example A627]	< 5000	< 10	> 10000	< 10	> 10000	> 10000	–
C=C(C)C(=O)N1CC2(CCN(C(=O)N(C)[C@H](C(=O)N[C@H]3Cc4nc(cs4)-c4ccc5c(c4)c(c(-c4cccnc4[C@H](C)OC)n5CC)CC(C)(C)COC(=O)[C@@H]4CCCN(N4)C3=O)C(C)C)CC2)C1 (atropisomer, axis not shown) [Example A651]	< 5000	10 to 100	100 to 1000	10 to 100	100 to 1000	100 to 1000	–
C=CC(=O)N(C)C[C@H]1CCN(C(=O)N(C)[C@H](C(=O)N[C@H]2Cc3nc(cs3)-c3ccc4c(c3)c(c(-c3cccnc3[C@H](C)OC)n4CC)CC(C)(C)COC(=O)[C@@H]3CCCN(N3)C2=O)C(C)C)C1 (atropisomer, axis not shown) [Example A653]	< 5000	10 to 100	100 to 1000	10 to 100	100 to 1000	100 to 1000	–
C=CC(=O)N(C)C[C@@H]1CCN(C(=O)N(C)[C@H](C(=O)N[C@H]2Cc3nc(cs3)-c3ccc4c(c3)c(c(-c3cccnc3[C@H](C)OC)n4CC)CC(C)(C)COC(=O)[C@@H]3CCCN(N3)C2=O)C(C)C)C1 (atropisomer, axis not shown) [Example A654]	< 5000	100 to 1000	100 to 1000	10 to 100	100 to 1000	100 to 1000	–
CCn1c(-c2cccnc2[C@H](C)OC)c2c3cc(ccc31)-c1cccc(c1)C[C@H](NC(=O)[C@@H](COC1CN(C(=O)C#CC(C)(C)N(C)CCO)C1)C(C)C)C(=O)N1CCC[C@H](N1)C(=O)OCC(C)(C)C2 (atropisomer, axis not shown) [Example A657]	< 5000	10 to 100	> 10000	10 to 100	> 10000	> 10000	–
CCn1c(-c2cccnc2[C@H](C)OC)c2c3cc(ccc31)-c1csc(n1)C[C@H](NC(=O)[C@@H](COC1CN(C(=O)C#CC(C)(C)N(C)C)C1)OC)C(=O)N1CCC[C@H](N1)C(=O)OCC(C)(C)C2 (atropisomer, axis not shown) [Example A660]	< 5000	< 10	100 to 1000	< 10	1000 to 10000	100 to 1000	–
C=CC(=O)N1CC[C@@]2(CCN2C(=O)N(C)[C@H](C(=O)N[C@H]2Cc3nc(cs3)-c3ccc4c(c3)c(c(-c3cccnc3[C@H](C)OC)n4CC)CC(C)(C)COC(=O)[C@@H]3CCCN(N3)C2=O)C(C)C)C1 (atropisomer, axis not shown) [Example A661]	< 5000	10 to 100	1000 to 10000	10 to 100	100 to 1000	100 to 1000	–
CCn1c(-c2cccnc2[C@H](C)OC)c2c3cc(ccc31)C1=CCCN(C1)C[C@H](NC(=O)[C@@H](COC1CN(C(=O)C#CC(C)(C)N(C)C)C1)C(C)C)C(=O)N1CCC[C@H](N1)C(=O)OCC(C)(C)C2 (atropisomer, axis not shown) [Example A663, (2R)-2-(((1-(4-(dimethylamino)-4-methylpent-2-ynoyl)405yridine405-3-yl)oxy)methyl)-N-((6^3S,4S)-1^1-ethyl-1^2-(2-((S)-1-methoxyethyl)405yridine-3-yl)-10,10-dimethyl-5,7-dioxo-2^1,2^2,2^3,2^6,6^1,6^2,6^3,6^4,6^5,6^6-decahydro-1^1H-8-oxa-1(5,3)-indola-6(1,3)-pyridazina-2(5,1)-pyridinacycloundecaphane-4-yl)-3-methylbutanamide]	< 5000	< 10	> 10000	< 10	> 10000	> 10000	–
CCn1c(-c2cccnc2[C@H](C)OC)c2c3cc(ccc31)-c1csc(n1)C[C@H](NC(=O)[C@H](C(C)C)N(C)C(=O)N1CCN(C(=O)/C=C/CN3CCOCC3)C3(CC3)C1)C(=O)N1CCC[C@H](N1)C(=O)OCC(C)(C)C2 (atropisomer, axis not shown) [Example A665]	< 5000	10 to 100	10 to 100	10 to 100	10 to 100	10 to 100	–
